Source: patent publication US8895733B2 (Novartis AG, priority 2010, dated 2014)
pIC50: −log10 of the molar value.

How the values were obtained:
Format in all cases: cell-based
[1] = biological target: T1, Nav 1.7 (Homo sapiens, UniProt Q15858); assay: Whole-cell voltage clamp electrophysiology, manual patch clamp (marker b in Table of Examples); conditions: marker b: Manual patch clamp data; read-out: Nav 1.7 activity
T1 construct: expressed in transfected cells
Description: (§1) a.IonWork Quattro data, b=Manual patch clamp data, c=Automated patch clamp data M=Method
(§2) Whole-Cell Voltage Clamp Electrophysiology Assay
(§3) Patch-clamp electrophysiology is considered the gold standard technique for investigation of ion channel function and pharmacology. Using this method, sodium channel currents can be measured in cells, which stably (or transiently) express the sodium channel subtype of interest. Application of compounds during such experiments provides a functional measure of the activity and potency of compounds affecting the ion channel of interest.
(§4) Electrophysiological studies can also be performed using the whole cell configuration of the standard manual patch clamp technique as described in the literature (e.g. Pflugers Arch., 1981, 391(2), 85-100). In this assay, cells that express the voltage-gated sodium channel protein of interest are exposed to the drugs by conventional microperfusion systems, or by a home-built perfusion system. A suitable voltage stimulus protocol is used to activate the voltage-gated sodium channels.
(§5) A suitable voltage stimulus protocol is used to activate voltage-gated sodium channel proteins of interest. A typical stimulus protocol may consist of sweeps of sequential voltage pulses starting from a holding potential (i.e. −65 mV), to a more positive and depolarising test pulse potential (i.e. −10 mV) and finally to a more negative and hyperpolarising potential (i.e. −100 mV). According to the biophysics of the voltage-gated ion channel of interest and interest in channel configuration the voltages and durations of the pulses as well as the overall frequency of sweeps applied might vary. Accordingly, a stimulus protocol was designed to assess compounds due to their potential to block NaV1.7 channels primarily in inactivated state. Selectivity over other voltage-gated sodium channel members was assessed by protocols that reflect the native function of the channels (i.e. heart rate or firing of neurons).
(§6) Electrophysiological studies can also be performed using the whole cell configuration of the standard manual patch clamp technique as described in the literature (e.g. Pflugers Arch., 1981, 391(2), 85-100). In this assay, cells that express the human voltage-gated sodium channel protein of interest are exposed to the drugs by conventional microperfusion systems, or by a home-built perfusion system. A suitable voltage stimulus protocol is used to activate the voltage-gated sodium channels. A suitable voltage stimulus protocol may consist of sequential voltage pulses from a holding potential, each first hyperpolarizing the cell, then depolarizing the channels for a brief period. A particularly suitable holding potential may be a voltage allowing a fraction of channels to remain in an inactivated state, like −60 mV. A suitable hyperpolarizing voltage and duration may be −120 mV for 100 ms, and depolarization voltage and duration may be −20 mV for 25 ms, and a suitable frequency of pulses may be 0.1 Hz, but may also have other parameters. Accordingly, a stimulus protocol was designed to assess compounds due to their potential to block NaV1.7 channels primarily in inactivated state. Selectivity over other voltage-gated sodium channel members was assessed by protocols that reflect the native function of the channels (i.e. heart rate or firing of neurons).

[2] = biological target: T2, Nav1.5 (Homo sapiens, UniProt Q14524); assay: Inhibition of Nav1.5 as measured using manual patch clamp
T2 construct: expressed in transfected cells
Description: as §3, §4, §5, §6
Inhibition of Nav1.5 by Compounds of formula (I) as measured using manual patch clamp

[3] = biological target: T1, Nav 1.7; assay: Whole-cell voltage clamp electrophysiology, IonWorks Quattro (marker a in Table of Examples); conditions: marker a: IonWork Quattro data; read-out: Nav 1.7 activity
Description: as §1, §2, §3
(§7) Electrophysiological studies can be performed using automated or manual patch-clamp techniques. Automated patch-clamp instruments suitable for this work include the Ion Works HT (MDS), Ion Works Quattro (MDS), PatchLiner (Nanion technologies), Port-A-Patch (Nanion technologies), QPatch (Sophion) or any other suitable platform.
(§8) For recording in automated patch-clamp instruments, cells expressing the voltage-gated sodium channel subtype of interest are dispensed in appropriate chips (plates with more than one recording chambers each containing one or more apertures to generate whole-cell patches), as provided by the manufacturer. Typically, the whole-cell perforated patch configuration is used for probing the pharmacology of compounds in automated patch-clamp electrophysiology on sodium channels. Extracellular and intracellular buffers for such experiments are composed according to the literature, or according to the instructions provided by the manufacturer of the instruments. Test solutions, which contain the compounds to be tested, are applied to the cells expressing the sodium channel of interest by a pipetting system, typically integrated into the robots.
as §5

[4] = biological target: T2, Nav1.5; assay: Inhibition of Nav1.5 as measured using QPatch
Description: as §3, §7, §8, §5
Inhibition of Nav1.5 by Compounds of formula (I) as measured using QPatch

[5] = biological target: T1, Nav 1.7; assay: Whole-cell voltage clamp electrophysiology, automated patch clamp (marker c in Table of Examples); conditions: marker c: Automated patch clamp data; read-out: Nav 1.7 activity
Procedure, shortened: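 Human NaV1.7 currents were recorded by whole-cell automated patch clamp, on IonWorks Quattro or another automated platform, typically in perforated-patch configuration. The stimulus protocol was designed to probe block mainly of the inactivated state, with a typical sweep stepping from about −65 mV holding to −10 mV, then −100 mV.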

T1 sequence (Q15858 whole entry): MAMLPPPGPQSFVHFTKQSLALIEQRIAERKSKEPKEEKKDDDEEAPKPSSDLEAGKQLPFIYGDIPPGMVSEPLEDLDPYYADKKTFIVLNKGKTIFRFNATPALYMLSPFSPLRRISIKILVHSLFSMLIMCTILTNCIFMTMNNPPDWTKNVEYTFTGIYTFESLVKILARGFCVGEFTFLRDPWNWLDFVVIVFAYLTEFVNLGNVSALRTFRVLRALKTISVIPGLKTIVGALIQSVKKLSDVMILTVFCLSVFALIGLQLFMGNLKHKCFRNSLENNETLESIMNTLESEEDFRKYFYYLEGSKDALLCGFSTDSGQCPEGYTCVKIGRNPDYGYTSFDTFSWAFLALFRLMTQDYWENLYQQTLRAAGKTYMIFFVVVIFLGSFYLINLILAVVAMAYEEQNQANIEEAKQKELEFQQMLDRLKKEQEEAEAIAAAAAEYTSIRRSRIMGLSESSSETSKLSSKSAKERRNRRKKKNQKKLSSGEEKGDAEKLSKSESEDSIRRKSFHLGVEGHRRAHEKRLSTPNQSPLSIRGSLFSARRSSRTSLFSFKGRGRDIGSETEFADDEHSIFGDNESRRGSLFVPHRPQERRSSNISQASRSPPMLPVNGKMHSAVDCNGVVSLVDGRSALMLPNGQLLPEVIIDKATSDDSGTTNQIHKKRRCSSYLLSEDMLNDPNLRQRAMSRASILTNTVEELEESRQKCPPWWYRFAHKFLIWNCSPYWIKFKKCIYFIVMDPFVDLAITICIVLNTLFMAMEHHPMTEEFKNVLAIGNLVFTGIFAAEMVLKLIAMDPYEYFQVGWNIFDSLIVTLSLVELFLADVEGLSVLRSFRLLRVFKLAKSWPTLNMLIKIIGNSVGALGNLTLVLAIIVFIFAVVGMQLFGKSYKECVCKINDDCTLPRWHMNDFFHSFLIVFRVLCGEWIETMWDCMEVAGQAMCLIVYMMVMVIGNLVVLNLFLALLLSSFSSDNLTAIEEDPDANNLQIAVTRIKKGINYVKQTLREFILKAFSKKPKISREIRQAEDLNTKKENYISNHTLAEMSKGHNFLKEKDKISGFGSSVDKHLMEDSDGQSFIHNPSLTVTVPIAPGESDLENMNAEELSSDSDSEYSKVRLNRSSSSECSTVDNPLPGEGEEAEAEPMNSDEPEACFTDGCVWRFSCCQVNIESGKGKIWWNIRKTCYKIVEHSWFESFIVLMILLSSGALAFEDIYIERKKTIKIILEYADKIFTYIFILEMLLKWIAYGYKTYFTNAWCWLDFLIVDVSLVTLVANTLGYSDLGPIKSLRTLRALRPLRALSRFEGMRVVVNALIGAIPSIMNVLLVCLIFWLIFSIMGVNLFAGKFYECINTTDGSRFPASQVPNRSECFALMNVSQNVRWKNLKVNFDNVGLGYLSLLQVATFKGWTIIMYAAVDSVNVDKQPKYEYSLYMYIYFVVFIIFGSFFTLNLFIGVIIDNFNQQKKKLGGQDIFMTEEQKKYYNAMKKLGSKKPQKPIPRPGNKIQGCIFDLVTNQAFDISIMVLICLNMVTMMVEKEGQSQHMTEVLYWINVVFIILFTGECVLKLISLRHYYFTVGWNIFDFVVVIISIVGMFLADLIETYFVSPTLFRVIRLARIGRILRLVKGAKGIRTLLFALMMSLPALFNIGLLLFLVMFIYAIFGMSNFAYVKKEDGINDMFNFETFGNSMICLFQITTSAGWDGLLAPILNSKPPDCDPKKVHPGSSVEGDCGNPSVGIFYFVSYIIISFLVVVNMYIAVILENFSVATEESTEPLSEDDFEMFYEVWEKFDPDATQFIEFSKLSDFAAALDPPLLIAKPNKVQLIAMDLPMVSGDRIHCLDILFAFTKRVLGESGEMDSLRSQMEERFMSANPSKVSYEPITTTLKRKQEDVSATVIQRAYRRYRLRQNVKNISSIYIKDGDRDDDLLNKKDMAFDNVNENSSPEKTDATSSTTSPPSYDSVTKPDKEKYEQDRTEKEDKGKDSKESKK
T2 sequence (Q14524 whole entry): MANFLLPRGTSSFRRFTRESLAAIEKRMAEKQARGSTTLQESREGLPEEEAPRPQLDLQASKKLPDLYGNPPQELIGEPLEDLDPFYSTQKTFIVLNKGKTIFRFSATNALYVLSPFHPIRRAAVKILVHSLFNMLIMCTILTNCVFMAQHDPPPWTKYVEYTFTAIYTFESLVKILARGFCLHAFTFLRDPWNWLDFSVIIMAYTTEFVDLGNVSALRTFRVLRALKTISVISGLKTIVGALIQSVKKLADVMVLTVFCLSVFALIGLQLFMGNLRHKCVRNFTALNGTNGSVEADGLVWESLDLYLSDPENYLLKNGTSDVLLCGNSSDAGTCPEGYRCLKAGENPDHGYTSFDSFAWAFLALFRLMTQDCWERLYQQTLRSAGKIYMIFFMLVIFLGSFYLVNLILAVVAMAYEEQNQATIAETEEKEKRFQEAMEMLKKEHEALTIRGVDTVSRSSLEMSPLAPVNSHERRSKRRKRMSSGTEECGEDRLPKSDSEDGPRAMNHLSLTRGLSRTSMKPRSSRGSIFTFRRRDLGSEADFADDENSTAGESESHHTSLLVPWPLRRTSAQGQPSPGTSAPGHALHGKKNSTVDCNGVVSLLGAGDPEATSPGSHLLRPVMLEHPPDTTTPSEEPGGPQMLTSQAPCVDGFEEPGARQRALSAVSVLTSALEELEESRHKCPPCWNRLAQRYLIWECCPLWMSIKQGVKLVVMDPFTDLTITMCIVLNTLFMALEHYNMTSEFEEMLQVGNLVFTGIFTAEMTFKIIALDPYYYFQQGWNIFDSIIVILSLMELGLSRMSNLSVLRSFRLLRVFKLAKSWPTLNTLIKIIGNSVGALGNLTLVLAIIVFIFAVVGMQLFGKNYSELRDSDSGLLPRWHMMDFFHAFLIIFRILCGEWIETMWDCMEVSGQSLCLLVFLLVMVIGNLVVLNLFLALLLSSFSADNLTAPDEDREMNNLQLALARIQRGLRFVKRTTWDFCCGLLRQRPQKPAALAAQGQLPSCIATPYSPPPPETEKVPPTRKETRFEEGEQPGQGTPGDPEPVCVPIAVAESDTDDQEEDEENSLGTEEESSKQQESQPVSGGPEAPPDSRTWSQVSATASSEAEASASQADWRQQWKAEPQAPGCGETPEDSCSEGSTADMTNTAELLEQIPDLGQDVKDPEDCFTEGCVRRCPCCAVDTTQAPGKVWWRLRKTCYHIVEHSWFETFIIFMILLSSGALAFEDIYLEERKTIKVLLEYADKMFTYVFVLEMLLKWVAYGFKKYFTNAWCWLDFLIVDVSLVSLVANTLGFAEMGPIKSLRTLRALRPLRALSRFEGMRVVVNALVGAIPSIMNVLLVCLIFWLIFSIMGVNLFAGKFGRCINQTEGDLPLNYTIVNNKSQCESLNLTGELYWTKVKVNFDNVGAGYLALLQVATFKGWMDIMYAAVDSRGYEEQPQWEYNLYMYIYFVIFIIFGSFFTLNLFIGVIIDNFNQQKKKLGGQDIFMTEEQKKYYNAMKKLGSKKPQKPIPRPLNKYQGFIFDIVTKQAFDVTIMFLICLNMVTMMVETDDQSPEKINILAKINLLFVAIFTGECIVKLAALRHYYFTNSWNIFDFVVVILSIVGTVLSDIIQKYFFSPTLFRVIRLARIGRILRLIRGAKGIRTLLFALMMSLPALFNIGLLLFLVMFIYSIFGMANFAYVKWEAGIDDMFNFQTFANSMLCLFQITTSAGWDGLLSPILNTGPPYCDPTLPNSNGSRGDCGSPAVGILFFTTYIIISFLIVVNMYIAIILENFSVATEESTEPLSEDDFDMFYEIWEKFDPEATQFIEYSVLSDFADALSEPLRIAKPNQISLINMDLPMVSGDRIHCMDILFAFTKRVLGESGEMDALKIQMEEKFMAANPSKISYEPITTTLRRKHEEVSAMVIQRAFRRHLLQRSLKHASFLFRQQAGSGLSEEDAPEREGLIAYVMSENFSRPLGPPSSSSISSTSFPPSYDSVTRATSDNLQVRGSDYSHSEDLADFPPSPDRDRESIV

Compound | pIC50 [1] | pIC50 [2] | pIC50 [3] | other results
CN(c1ccccc1)c1nc(N)nc(-c2noc(-c3ccco3)n2)n1 [Example 1, 6-(5-Furan-2-yl-[1,2,4]oxadiazol-3-yl)-N-methyl-N-phenyl-[1,3,5]triazine-2,4-diamine] | 6.67 | 5.62 | – | –
CN(c1cccc(Cl)c1)c1nc(N)nc(-c2noc(-c3ccco3)n2)n1 [Example 7, 6-(5-Furan-2-yl-[1,2,4]oxadiazol-3-yl)-N-methyl-N-(3-chlorophenyl)-[1,3,5]triazine-2,4-diamine] | 6.73 | 6.07 | – | –
CN(c1ccc(F)cc1)c1nc(N)nc(-c2noc(-c3ccco3)n2)n1 [Example 16, N-(4-Fluoro-phenyl)-6-(5-furan-2-yl-[1,2,4]oxadiazol-3-yl)-N-methyl-[1,3,5]triazine-2,4-diamine] | 6.58 | 5.98 | – | –
CN(c1nc(N)nc(-c2noc(-c3ccco3)n2)n1)c1ccccc1Cl [Example 17, N-(2-Chloro-phenyl)-6-(5-furan-2-yl-[1,2,4]oxadiazol-3-yl)-N-methyl-[1,3,5]triazine-2,4-diamine] | – | – | > 5.30 | –
Cc1ccccc1N(C)c1nc(N)nc(-c2noc(-c3ccco3)n2)n1 [Example 18, 6-(5-Furan-2-yl-[1,2,4]oxadiazol-3-yl)-N-methyl-N-o-tolyl-[1,3,5]triazine-2,4-diamine] | – | – | > 5.30 | –
Cc1ccc(-c2nc(-c3nc(N)nc(N(C)c4ccccc4)n3)no2)o1 [Example 19, N-Methyl-6-[5-(5-methyl-furan-2-yl)-[1,2,4]oxadiazol-3-yl]-N-phenyl-[1,3,5]triazine-2,4-diamine] | – | – | 7.21 | –
CN(Cc1ccccc1)c1nc(N)nc(-c2noc(-c3ccco3)n2)n1 [Example 20, N-Benzyl-6-(5-furan-2-yl-[1,2,4]oxadiazol-3-yl)-N-methyl-[1,3,5]triazine-2,4-diamine] | – | – | > 5.52 | –
CCN(c1ccccc1)c1nc(N)nc(-c2noc(-c3ccco3)n2)n1 [Example 21, N-Ethyl-6-(5-furan-2-yl-[1,2,4]oxadiazol-3-yl)-N-phenyl-[1,3,5]triazine-2,4-diamine] | 6.60 | 5.69 | – | –
Nc1nc(-c2noc(-c3ccco3)n2)nc(N2CCc3ccccc32)n1 [Example 22, 4-(2,3-Dihydro-indol-1-yl)-6-(5-furan-2-yl-[1,2,4]oxadiazol-3-yl)-[1,3,5]triazin-2-ylamine] | – | – | > 6.00 | –
COc1cccc(-c2nc(-c3nc(N)nc(N(C)c4ccccc4)n3)no2)c1 [Example 24, 6-[5-(3-Methoxy-phenyl)-[1,2,4]oxadiazol-3-yl]-N-methyl-N-phenyl-[1,3,5]triazine-2,4-diamine] | – | – | > 6.30 | –
Nc1nc(Nc2cccc(Cl)c2)nc(-c2noc(-c3ccco3)n2)n1 [Example 32, N-(3-Chloro-phenyl)-6-(5-furan-2-yl-[1,2,4]oxadiazol-3-yl)-[1,3,5]triazine-2,4-diamine] | – | – | > 6.30 | –
CN(c1cccc(C(F)(F)F)c1)c1nc(N)nc(-c2noc(-c3ccco3)n2)n1 [Example 33] | – | – | > 6.00 | –
CN(c1nc(N)nc(-c2noc(-c3ccco3)n2)n1)c1cccc(F)c1F [Example 34, 6-(5-Furan-2-yl-[1,2,4]oxadiazol-3-yl)-N-methyl-N-(2,3-difluorophenyl)-[1,3,5]triazine-2,4-diamine] | – | – | > 6.30 | –
Nc1nc(Nc2ccccc2)nc(-c2noc(-c3ccccn3)n2)n1 [Example 39, N-Phenyl-6-(pyridin-2-yl-[1,2,4]oxadiazol-3-yl)-[1,3,5]triazine-2,4-diamine] | 6.50 | – | – | pIC50 [4]: 6.05
Nc1nc(Nc2ccccc2)nc(-c2noc(-c3ccc(OCC(F)(F)F)nc3)n2)n1 [Example 41, 2-N-Phenyl-6-{5-[6-(2,2,2-trifluoroethoxy)pyridin-3-yl]-1,2,4-oxadiazol-3-yl}-1,3,5-triazine-2,4-diamine] | – | – | – | pIC50 [5]: 6.17; pIC50 [4]: 6.48
CN(c1ccccc1)c1nc(N)nc(-c2noc(-c3ncccc3Br)n2)n1 [Example 43, 6-[5-(3-Bromopyridin-2-yl)-[1,2,4]oxadiazol-3-yl]-N-methyl-N-phenyl-[1,3,5]triazine-2,4-diamine] | – | – | – | pIC50 [5]: 6.99; pIC50 [4]: 5.99
Nc1nc(-c2noc(-c3ccco3)n2)nc(N(CC(F)(F)F)c2ccccc2)n1 [Example 68, 6-(5-Furan-2-yl-[1,2,4]oxadiazol-3-yl)-N-phenyl-N-(2,2,2-trifluoro-ethyl)-[1,3,5]triazine-2,4-diamine] | – | < 5.00 | – | pIC50 [5]: 6.65
CN(c1ccccc1)c1nc(N)nc(-c2noc(C(=O)NCc3ccccc3)n2)n1 [Example 71, 3-[4-Amino-6-(methyl-phenyl-amino)-[1,3,5]triazin-2-yl]-[1,2,4]oxadiazole-5-carboxylic acid benzylamide] | 6.09 | – | – | pIC50 [4]: 5.52
CN(c1ccccc1)c1nc(N)nc(-c2noc(C(=O)NC3CCCC3)n2)n1 [Example 72, 3-[4-Amino-6-(methyl-phenyl-amino)-[1,3,5]triazin-2-yl]-[1,2,4]oxadiazole-5-carboxylic acid cyclopentylamide] | – | – | – | pIC50 [5]: 6.54; pIC50 [4]: 5.22
CN(c1cccc(F)c1)c1nc(N)nc(-c2noc(-c3ccccc3Cl)n2)n1 [Example 86, 6-[5-(2-Chloro-phenyl)-[1,2,4]oxadiazol-3-yl]-N-(3-fluoro-phenyl)-N-methyl-[1,3,5]triazine-2,4-diamine] | 6.90 | 6.52 | – | –
CCN(c1ccccc1)c1nc(N)nc(-c2noc(-c3ccccc3OC)n2)n1 [Example 95, N-Ethyl-6-[5-(2-methoxy-phenyl)-[1,2,4]oxadiazol-3-yl]-N-phenyl-[1,3,5]triazine-2,4-diamine] | 7.34 | 5.43 | – | –
COc1ccccc1-c1nc(-c2nc(N)nc(N(C)c3cccc(Cl)c3)n2)no1 [Example 100, N-(3-Chloro-phenyl)-6-[5-(2-methoxy-phenyl)-[1,2,4]oxadiazol-3-yl]-N-methyl-[1,3,5]triazine-2,4-diamine] | – | 6.90 | – | pIC50 [5]: 6.93
CN(c1nc(N)nc(-c2noc(-c3ccco3)n2)n1)c1cc(Cl)ccc1F [Example 103, N-(5-Chloro-2-fluoro-phenyl)-6-(5-furan-2-yl-[1,2,4]oxadiazol-3-yl)-N-methyl-[1,3,5]triazine-2,4-diamine] | 7.38 | 6.67 | – | –
COc1ccc(-c2nc(-c3nc(N)nc(N(C)c4ccccc4)n3)no2)nc1 [Example 118, 6-[5-(5-Methoxy-pyridin-2-yl)-[1,2,4]oxadiazol-3-yl]-N-methyl-N-phenyl-[1,3,5]triazine-2,4-diamine] | – | 5.48 | – | pIC50 [5]: 6.53
COc1cccnc1-c1nc(-c2nc(N)nc(N(C)c3ccccc3)n2)no1 [Example 132, 6-[5-(3-Methoxy-2-pyridyl)-[1,2,4]oxadiazol-3-yl]-N-methyl-N-phenyl-[1,3,5]triazine-2,4-diamine] | – | 5.58 | – | pIC50 [5]: 6.40
